Each compound was assayed against T1, PD-1/PD-L1 protein/protein interaction (Homo sapiens, UniProt Q9NZQ7) (assay: PD-1/PD-L1 homogenous time-resolved fluorescence (HTRF) binding assay). Settings: not given.
T1 construct: Recombinant human PD-L1 protein (19-238) with a His-tag at the C-terminus; purchased AcroBiosystems PD1-H5229 (PD-L1); PD1-H5257 (PD-1)
Method: Resolved Fluorescence (HTRF) Binding Assay
The assays were conducted in a standard black 384-well polystyrene plate with a final volume of 20 μL. Inhibitors were first serially diluted in DMSO and then added to the plate wells before the addition of other reaction components. The final concentration of DMSO in the assay was 1%. The assays were carried out at 25° C. in the PBS buffer (pH 7.4) with 0.05% Tween-20 and 0.1% BSA. […] Plates were centrifuged and proteins were preincubated with inhibitors for 40 min. The incubation was followed by the addition of 10 μL of HTRF detection buffer supplemented with Europium cryptate-labeled anti-human IgG (PerkinElmer-AD0212) specific for Fc and anti-His antibody conjugated to SureLight®-Allophycocyanin (APC, PerkinElmer-AD0059H). After centrifugation, the plate was incubated at 25° C. for 60 min. […] Final concentrations in the assay were […], 10 nM PD-L1, nM europium anti-human IgG and 20 nM anti-His-Allophycocyanin. IC50 determination was performed by fitting the curve of percent control activity versus the log of the inhibitor concentration using the GraphPad Prism 5.0 software.

T1 sequence (Q9NZQ7 19-238): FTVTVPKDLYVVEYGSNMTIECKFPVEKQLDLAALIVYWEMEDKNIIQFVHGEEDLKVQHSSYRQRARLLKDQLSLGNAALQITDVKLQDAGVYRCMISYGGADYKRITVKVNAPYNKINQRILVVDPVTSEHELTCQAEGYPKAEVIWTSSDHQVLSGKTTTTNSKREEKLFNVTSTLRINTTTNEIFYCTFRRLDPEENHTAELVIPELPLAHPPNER

IC50 [nM] | Compound
25 to 150 | COc1cc2oc(-c3cccc(-c4cccc(CC5CC5CN5CCOCC5)c4C)c3C)nc2cc1CN1CCCCC1C(=O)O (stereo not drawn) [Compound 28, 1-((2-(2,2′-dimethyl-3′-((2-(morpholinomethyl)cyclopropyl)methyl)-[1,1′-biphenyl]-3-yl)-6-methoxybenzo[d]oxazol-5-yl)methyl)piperidine-2-carboxylic acid]
< 25 | CCCNC(=O)NCCN(C)CCCOc1cccc(-c2cccc(-c3nc4cc(CN5CCCCC5C(=O)O)c(OC)cc4o3)c2C)c1C (stereo not drawn) [Compound 32, 1-((2-(2,2′-dimethyl-3′-(3-(methyl(2-(3-propylureido)ethyl)amino)propoxy)-[1,1′-biphenyl]-3-yl)-6-methoxybenzo[d]oxazol-5-yl)methyl)piperidine-2-carboxylic acid]
< 25 | COCCN(C)CCCOc1cccc(-c2cccc(-c3nc4cc(CN5CCCCC5C(=O)O)c(OC)cc4o3)c2C)c1C (stereo not drawn) [Compound 31, 1-((6-methoxy-2-(3′-(3-((2-methoxyethyl)(methyl)amino)propoxy)-2,2′-dimethyl-[1,1′-biphenyl]-3-yl)benzo[d]oxazol-5-yl)methyl)piperidine-2-carboxylic acid]
< 25 | COc1cc2c(cc1CN1CCCCC1C(=O)O)nc(-c1cccc(-c3cccc(OCCCN4CCOCC4)c3F)c1C)n2C (stereo not drawn) [Compound 13, 1-((2-(2′-fluoro-2-methyl-3′-(3-morpholinopropoxy)-[1,1′-biphenyl]-3-yl)-6-methoxy-1-methyl-1H-benzo[d]imidazol-5-yl)methyl)piperidine-2-carboxylic acid]
< 25 | COc1cc2sc(-c3cccc(-c4cccc(OCCCN5CCOCC5)c4)c3C)nc2cc1CN1CCCC1C(=O)O (stereo not drawn) [Compound 25, ((6-methoxy-2-(2-methyl-3′-(3-morpholinopropoxy)-[1,1′-biphenyl]-3-yl)benzo[d]thiazol-5-yl)methyl)proline]
< 25 | COc1cc2nc(-c3cccc(-c4cccc(OCCCN5CCOCC5)c4)c3C)n(C)c2cc1CN1CCCCC1C(=O)O (stereo not drawn) [Compound 33, 1-((5-methoxy-1-methyl-2-(2-methyl-3′-(3-morpholinopropoxy)-[1,1′-biphenyl]-3-yl)-1H-benzo[d]imidazol-6-yl)methyl)piperidine-2-carboxylic acid]
< 25 | COc1cc2oc(-c3cccc(-c4cccc(C/C=C/CN5CCOCC5)c4C)c3C)nc2cc1CN1CCCCC1C(=O)O (stereo not drawn) [Compound 6, (E)-1-((2-(2,2′-dimethyl-3′-(4-morpholinobut-2-en-1-yl)-[1,1′-biphenyl]-3-yl)-6-methoxybenzo[d]oxazol-5-yl)methyl)piperidine-2-carboxylic acid]
< 25 | Cc1c(-c2ccccc2)cccc1-c1nc2cc(CN3CCCCC3C(=O)O)c(OC(C)C)cc2o1 (stereo not drawn) [Compound 24, 1-((6-isopropoxy-2-(2-methyl-[1,1′-biphenyl]-3-yl)benzo[d]oxazol-5-yl)methyl)piperidine-2-carboxylic acid]
< 25 | COc1cc2oc(-c3cccc(-c4cccc(/C=C/CCN5CCOCC5)c4C)c3C)nc2cc1CN1CCCCC1C(=O)O (stereo not drawn) [Compound 7, (E)-1-((2-(2,2′-dimethyl-3′-(4-morpholinobut-1-en-1-yl)-[1,1′-biphenyl]-3-yl)-6-methoxybenzo[d]oxazol-5-yl)methyl)piperidine-2-carboxylic acid]
< 25 | COc1cc2nc(-c3cccc(-c4cccc(OCCCN5CCOCC5)c4)c3C)oc2cc1CN1CCCCC1C(=O)O (stereo not drawn) [Compound 34, 1-((5-methoxy-2-(2-methyl-3′-(3-morpholinopropoxy)-[1,1′-biphenyl]-3-yl)benzo[d]oxazol-6-yl)methyl)piperidine-2-carboxylic acid]
< 25 | COc1cc2nc(-c3cccc(-c4cccc(OCCCN5CCOCC5)c4F)c3C)n(C)c2cc1N1CCCCC1C(=O)O (stereo not drawn) [Compound 12, 1-(2-(2′-fluoro-2-methyl-3′-(3-morpholinopropoxy)-[1,1′-biphenyl]-3-yl)-5-methoxy-1-methyl-1H-benzo[d]imidazol-6-yl)piperidine-2-carboxylic acid]
< 25 | COc1cc2oc(-c3cccc(-c4cccc5c4CCN5C(=O)CCN4CCOCC4)c3C)nc2cc1CN1CCOCC1C(=O)O (stereo not drawn) [Compound 38, 4-((6-methoxy-2-(2-methyl-3-(1-(3-morpholinopropanoyl)indolin-4-yl)phenyl)benzo[d]oxazol-5-yl)methyl)morpholine-3-carboxylic acid]
< 25 | COc1cc2oc(-c3cccc(-c4cccc(OCCCN(C)CCCCO)c4C)c3C)nc2cc1CN1CCCCC1C(=O)O (stereo not drawn) [Compound 29, 1-((2-(3′-(3-((4-hydroxybutyl)(methyl)amino)propoxy)-2,2′-dimethyl-[1,1′-biphenyl]-3-yl)-6-methoxybenzo[d]oxazol-5-yl)methyl)piperidine-2-carboxylic acid]
25 to 150 | COc1cc2c(cc1CN1CCC(F)(F)CC1C(=O)O)nc(-c1cccc(-c3cccc(OCCCN4CCOCC4)c3)c1C)n2C (stereo not drawn) [Compound 15, 4,4-difluoro-1-((6-methoxy-1-methyl-2-(2-methyl-3′-(3-morpholinopropoxy)-[1,1′-biphenyl]-3-yl)-1H-benzo[d]imidazol-5-yl)methyl)piperidine-2-carboxylic acid]

Same assay, conditions: HTRF, recombinant human PD-1 (Fc tag) / PD-L1 (His-tag), 25° C., PBS pH 7.4; class symbols; read-out: IC50

IC50 [nM] | Compound
> 150 | COc1cc2oc(-c3cccc(-c4cccc5c4CCN5C(=O)CN4CCOCC4)c3C)nc2cc1CN1CCCCC1C(=O)O (stereo not drawn) [Compound 40, 1-((6-methoxy-2-(2-methyl-3-(1-(2-morpholinoacetyl)indolin-4-yl)phenyl)benzo[d]oxazol-5-yl)methyl)piperidine-2-carboxylic acid]
< 25 | COc1cc2oc(-c3cccc(-c4cccc(OCCCN5CCOCC5)c4)c3C)nc2cc1CNCCO [Compound 1, 2-(((6-methoxy-2-(2-methyl-3′-(3-morpholinopropoxy)-[1,1′-biphenyl]-3-yl)benzo[d]oxazol-5-yl)methyl)amino)ethan-1-ol]
25 to 150 | COc1cc2oc(-c3cccc(-c4ccc(Cl)c(OCCCN5CCOCC5)c4)c3C)nc2cc1CN1CCCCC1C(=O)O (stereo not drawn) [Compound 11, 1-((2-(4′-chloro-2-methyl-3′-(3-morpholinopropoxy)-[1,1′-biphenyl]-3-yl)-6-methoxybenzo[d]oxazol-5-yl)methyl)piperidine-2-carboxylic acid]
25 to 150 | Cc1c(OCCCN2CCOCC2)cccc1-c1cccc(-c2nc3cc(CNCC(=O)O)c(N(C)C)cc3s2)c1C [Compound 36, ((2-(2,2′-dimethyl-3′-(3-morpholinopropoxy)-[1,1′-biphenyl]-3-yl)-6-(dimethylamino)benzo[d]thiazol-5-yl)methyl)glycine]
25 to 150 | COc1cc2oc(-c3cccc(-c4cccc(OCCCN5CCOCC5)c4)c3C)nc2cc1CN(C)C [Compound 2, 1-(6-methoxy-2-(2-methyl-3′-(3-morpholinopropoxy)-[1,1′-biphenyl]-3-yl)benzo[d]oxazol-5-yl)-N,N-dimethylmethanamine]
< 25 | CCOc1cc2oc(-c3cccc(-c4cccc5c4CCN5C(=O)CCN4CCOCC4)c3C)nc2cc1CN1CCCCC1C(=O)O (stereo not drawn) [Compound 39, 1-((6-ethoxy-2-(2-methyl-3-(1-(3-morpholinopropanoyl)indolin-4-yl)phenyl)benzo[d]oxazol-5-yl)methyl)piperidine-2-carboxylic acid]

Same assay, conditions: HTRF, recombinant human PD-1 (Fc tag) / PD-L1 (His-tag), 25° C., PBS pH 7.4; numeric values; read-out: IC50

IC50 [nM] | Compound
0.61 | COc1cc2oc(-c3cccc(-c4ccccc4)c3C)nc2cc1CN1CCCCC1C(=O)O (stereo not drawn) [Compound 23, 1-((6-methoxy-2-(2-methyl-[1,1′-biphenyl]-3-yl)benzo[d]oxazol-5-yl)methyl)piperidine-2-carboxylic acid]

From patent US20210300909A1, “IMMUNOMODULATORS, COMPOSITIONS AND METHODS THEREOF” (BETTA PHARMACEUTICALS CO., LTD, priority 2018, published 2021)
